Data published in patent publication US20230085307A1, “PYRIDAZINONE COMPOUND AND HERBICIDE” (NISSAN CHEMICAL CORPORATION, priority 2019, published 2023).

Legend:
Japanese bulrush [1] = assay: Test Example 1: herbicidal activity, application before weed generation under submerged conditions (Table 16, symbol B); assay type: in vivo, Japanese bulrush (Schoenoplectus juncoides)
Outline: (§1)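 Submerged Wagner pots (alluvial soil, 4 cm water) sown with weed seeds and planted with 2.5-leaf rice seedlings; emulsifiable concentrate diluted in water applied to water surface on sowing day. Held in greenhouse at 25-30 °C; injury scored 0-5 by herbicidal rate after three weeks.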

oval-leafed pondweed = assay: Test Example 1: herbicidal activity, application before weed generation under submerged conditions (Table 16, symbol C); assay type: in vivo, oval-leafed pondweed (Monochoria vaginalis)
Outline: as §1

Japanese bulrush [2] = assay: Test Example 2: herbicidal activity, application during weed generation under submerged conditions (Table 17, symbol B); assay type: in vivo, Japanese bulrush (Schoenoplectus juncoides); settings: application during weed generation, submerged conditions
Outline: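 Alluvial soil in Wagner pots was flooded to 4 cm depth and sown with the three weeds together; pots were kept in a greenhouse at 25° C. to 30° C. At the one to two leaf stage, an emulsion formulation diluted in water to a set rate went onto the water surface; scored three weeks later.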

Chinese sprangletop = assay: Test Example 3: herbicidal effect by foliage application, Wagner pot (Table 18, symbol D); assay type: in vivo, chinese sprangletop (Leptochloa chinensis)
Outline: (§2)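 Plants were sown in alluvial soil held under 0.1–0.5 cm standing water and grown 14 days in a greenhouse at 25–30 °C. An emulsifiable formulation, water-diluted to the set dose, was then sprayed onto the foliage, and effects were scored three weeks later using previously defined criteria.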

rice flat sedge = assay: Test Example 3: herbicidal effect by foliage application, Wagner pot (Table 18, symbol E); assay type: in vivo, rice flat sedge (Cyperus iria)
Outline: as §2

green foxtail = assay: Test Example 4: herbicidal effect by soil treatment (Table 19, symbol G); assay type: in vivo, green foxtail (Setaria viridis)
Outline: (§3)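 Step 1: sow seeds in sterilized diluvial soil, cover ~1.5 cm. Step 2: spray diluted emulsion onto soil surface at predetermined rate. Step 3: greenhouse, 25–30° C, three weeks. Step 4: grade effect on each plant by earlier criteria.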

wild oat [3] = assay: Test Example 4: herbicidal effect by soil treatment (Table 19, symbol I); assay type: in vivo, wild oat (Avena fatua)
Outline: as §3

Italian ryegrass = assay: Test Example 4: herbicidal effect by soil treatment (Table 19, symbol K); assay type: in vivo, Italian ryegrass (Lolium multiflorum)
Outline: as §3

windgrass [4] = assay: Test Example 4: herbicidal effect by soil treatment (Table 19, symbol L); assay type: in vivo, windgrass (Apera spica-venti)
Outline: as §3

redroot pigweed [5] = assay: Test Example 4: herbicidal effect by soil treatment (Table 19, symbol N); assay type: in vivo, redroot pigweed (Amaranthus retroflexus)
Outline: as §3

chickweed = assay: Test Example 4: herbicidal effect by soil treatment (Table 19, symbol P); assay type: in vivo, common chickweed (Stellaria media)
Outline: as §3

southern crabgrass = assay: Test Example 5: herbicidal effect by foliage application, plastic box (Table 20, symbol F); assay type: in vivo, southern crabgrass (Digitaria ciliaris); settings: foliage application, three weeks after application
Outline: (§4)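 Foliar spray test: emulsion formulation diluted in water to a set application rate, sprayed onto 14-day-old plants raised in diluvial soil at 25° C to 30° C under glass. Both herbicidal effect and crop effect rated visually three weeks later.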

wild oat [6] = assay: Test Example 5: herbicidal effect by foliage application, plastic box (Table 20, symbol I); assay type: in vivo, wild oat (Avena fatua); settings: foliage application, three weeks after application
Outline: as §4

windgrass [7] = assay: Test Example 5: herbicidal effect by foliage application, plastic box (Table 20, symbol L); assay type: in vivo, windgrass (Apera spica-venti); settings: foliage application, three weeks after application
Outline: as §4

redroot pigweed [8] = assay: Test Example 5: herbicidal effect by foliage application, plastic box (Table 20, symbol N); assay type: in vivo, redroot pigweed (Amaranthus retroflexus); settings: foliage application, three weeks after application
Outline: as §4

lambsquarters = assay: Test Example 5: herbicidal effect by foliage application, plastic box (Table 20, symbol O); assay type: in vivo, lambsquarters (Chenopodium album); settings: foliage application, three weeks after application
Outline: as §4

persian speedwell = assay: Test Example 5: herbicidal effect by foliage application, plastic box (Table 20, symbol R); assay type: in vivo, Persian speedwell (Veronica persica); settings: foliage application, three weeks after application
Outline: as §4

[9] = amount of applied herbicide 320 g/ha
[10] = amount of applied herbicide 224 g/ha
[11] = amount of applied herbicide 304 g/ha

CCOc1ccccc1-c1sc2cc(Cl)ccc2c1-c1c(O)c(C)nn(C)c1=O [3-039]
Herbicidal effect, B: Japanese bulrush (Japanese bulrush [1]; [9]): 1 (Herbicidal rate of 5% or more and less than 20%) | Herbicidal effect, C: oval-leafed pondweed (oval-leafed pondweed; [9]): 0 (Herbicidal rate of 5% or less (almost no effect)) | herbicidal effect rating, B: Japanese bulrush (Japanese bulrush [2]; AAH 320 g/ha): 2 (Herbicidal rate of 20% or more and less than 40%) | herbicidal effect on Chinese sprangletop (D) (Chinese sprangletop; 320 g/ha): 3 (Herbicidal rate of 40% or more and less than 70%) | herbicidal effect on rice flat sedge (E) (rice flat sedge; 320 g/ha): 5 (Herbicidal rate of 90% or more (almost completely withered)) | G: green foxtail, herbicidal effect grade (green foxtail; [9]): 4 (Herbicidal rate of 70% or more and less than 90%) | I: wild oat, herbicidal effect grade (wild oat [3]; [9]): 0 (Herbicidal rate of 5% or less (almost no effect)) | K: Italian ryegrass, herbicidal effect grade (Italian ryegrass; [9]): 0 (Herbicidal rate of 5% or less (almost no effect)) | L: windgrass, herbicidal effect grade (windgrass [4]; [9]): 0 (Herbicidal rate of 5% or less (almost no effect)) | N: redroot pigweed, herbicidal effect grade (redroot pigweed [5]; [9]): 4 (Herbicidal rate of 70% or more and less than 90%) | P: chickweed, herbicidal effect grade (chickweed; [9]): 5 (Herbicidal rate of 90% or more (almost completely withered)) | F: southern crabgrass, herbicidal effect grade (southern crabgrass; 320 g/ha): 5 (Herbicidal rate of 90% or more (almost completely withered)) | I: wild oat, herbicidal effect grade (wild oat [6]; 320 g/ha): 1 (Herbicidal rate of 5% or more and less than 20%) | L: windgrass, herbicidal effect grade (windgrass [7]; 320 g/ha): 4 (Herbicidal rate of 70% or more and less than 90%) | N: redroot pigweed, herbicidal effect grade (redroot pigweed [8]; 320 g/ha): 4 (Herbicidal rate of 70% or more and less than 90%) | O: lambsquarters, herbicidal effect grade (lambsquarters; 320 g/ha): 3 (Herbicidal rate of 40% or more and less than 70%) | R: persian speedwell, herbicidal effect grade (persian speedwell; 320 g/ha): 5 (Herbicidal rate of 90% or more (almost completely withered))

CCCC(=O)Oc1c(C)nn(C)c(=O)c1-c1c(-c2ccccc2OCC)sc2cc(Cl)ccc12 [3-040]
Herbicidal effect, B: Japanese bulrush (Japanese bulrush [1]; [9]): 3 (Herbicidal rate of 40% or more and less than 70%) | Herbicidal effect, C: oval-leafed pondweed (oval-leafed pondweed; [9]): 2 (Herbicidal rate of 20% or more and less than 40%) | herbicidal effect rating, B: Japanese bulrush (Japanese bulrush [2]; AAH 320 g/ha): 2 (Herbicidal rate of 20% or more and less than 40%) | herbicidal effect on Chinese sprangletop (D) (Chinese sprangletop; 320 g/ha): 0 (Herbicidal rate of 5% or less (almost no effect)) | herbicidal effect on rice flat sedge (E) (rice flat sedge; 320 g/ha): 5 (Herbicidal rate of 90% or more (almost completely withered)) | G: green foxtail, herbicidal effect grade (green foxtail; [9]): 2 (Herbicidal rate of 20% or more and less than 40%) | I: wild oat, herbicidal effect grade (wild oat [3]; [9]): 0 (Herbicidal rate of 5% or less (almost no effect)) | K: Italian ryegrass, herbicidal effect grade (Italian ryegrass; [9]): 0 (Herbicidal rate of 5% or less (almost no effect)) | L: windgrass, herbicidal effect grade (windgrass [4]; [9]): 5 (Herbicidal rate of 90% or more (almost completely withered)) | N: redroot pigweed, herbicidal effect grade (redroot pigweed [5]; [9]): 4 (Herbicidal rate of 70% or more and less than 90%) | P: chickweed, herbicidal effect grade (chickweed; [9]): 4 (Herbicidal rate of 70% or more and less than 90%) | F: southern crabgrass, herbicidal effect grade (southern crabgrass; 320 g/ha): 4 (Herbicidal rate of 70% or more and less than 90%) | I: wild oat, herbicidal effect grade (wild oat [6]; 320 g/ha): 1 (Herbicidal rate of 5% or more and less than 20%) | L: windgrass, herbicidal effect grade (windgrass [7]; 320 g/ha): 5 (Herbicidal rate of 90% or more (almost completely withered)) | N: redroot pigweed, herbicidal effect grade (redroot pigweed [8]; 320 g/ha): 5 (Herbicidal rate of 90% or more (almost completely withered)) | O: lambsquarters, herbicidal effect grade (lambsquarters; 320 g/ha): 2 (Herbicidal rate of 20% or more and less than 40%) | R: persian speedwell, herbicidal effect grade (persian speedwell; 320 g/ha): 4 (Herbicidal rate of 70% or more and less than 90%)

CCCC(=O)Oc1c(C)nn(C)c(=O)c1-c1c(-c2ccccc2OC)sc2cc(C)ccc12 [3-050]
Herbicidal effect, B: Japanese bulrush (Japanese bulrush [1]; [10]): 0 (Herbicidal rate of 5% or less (almost no effect)) | Herbicidal effect, C: oval-leafed pondweed (oval-leafed pondweed; [10]): 1 (Herbicidal rate of 5% or more and less than 20%) | herbicidal effect rating, B: Japanese bulrush (Japanese bulrush [2]; AAH 224 g/ha): 1 (Herbicidal rate of 5% or more and less than 20%) | herbicidal effect on Chinese sprangletop (D) (Chinese sprangletop; 224 g/ha): 3 (Herbicidal rate of 40% or more and less than 70%) | herbicidal effect on rice flat sedge (E) (rice flat sedge; 224 g/ha): 3 (Herbicidal rate of 40% or more and less than 70%) | G: green foxtail, herbicidal effect grade (green foxtail; [10]): 0 (Herbicidal rate of 5% or less (almost no effect)) | I: wild oat, herbicidal effect grade (wild oat [3]; [10]): 0 (Herbicidal rate of 5% or less (almost no effect)) | K: Italian ryegrass, herbicidal effect grade (Italian ryegrass; [10]): 1 (Herbicidal rate of 5% or more and less than 20%) | L: windgrass, herbicidal effect grade (windgrass [4]; [10]): 2 (Herbicidal rate of 20% or more and less than 40%) | N: redroot pigweed, herbicidal effect grade (redroot pigweed [5]; [10]): 0 (Herbicidal rate of 5% or less (almost no effect)) | P: chickweed, herbicidal effect grade (chickweed; [10]): 3 (Herbicidal rate of 40% or more and less than 70%) | F: southern crabgrass, herbicidal effect grade (southern crabgrass; 224 g/ha): 4 (Herbicidal rate of 70% or more and less than 90%) | I: wild oat, herbicidal effect grade (wild oat [6]; 224 g/ha): 4 (Herbicidal rate of 70% or more and less than 90%) | L: windgrass, herbicidal effect grade (windgrass [7]; 224 g/ha): 4 (Herbicidal rate of 70% or more and less than 90%) | N: redroot pigweed, herbicidal effect grade (redroot pigweed [8]; 224 g/ha): 4 (Herbicidal rate of 70% or more and less than 90%) | O: lambsquarters, herbicidal effect grade (lambsquarters; 224 g/ha): 0 (Herbicidal rate of 5% or less (almost no effect)) | R: persian speedwell, herbicidal effect grade (persian speedwell; 224 g/ha): 5 (Herbicidal rate of 90% or more (almost completely withered))

CCCC(=O)Oc1c(C)nn(C)c(=O)c1-c1c(-c2ccccc2OCC)sc2cc(C)ccc12 [3-054]
Herbicidal effect, B: Japanese bulrush (Japanese bulrush [1]; [11]): 5 (Herbicidal rate of 90% or more (almost completely withered)) | Herbicidal effect, C: oval-leafed pondweed (oval-leafed pondweed; [11]): 4 (Herbicidal rate of 70% or more and less than 90%) | herbicidal effect rating, B: Japanese bulrush (Japanese bulrush [2]; AAH 304 g/ha): 3 (Herbicidal rate of 40% or more and less than 70%) | herbicidal effect on Chinese sprangletop (D) (Chinese sprangletop; 304 g/ha): 3 (Herbicidal rate of 40% or more and less than 70%) | herbicidal effect on rice flat sedge (E) (rice flat sedge; 304 g/ha): 5 (Herbicidal rate of 90% or more (almost completely withered)) | G: green foxtail, herbicidal effect grade (green foxtail; [11]): 3 (Herbicidal rate of 40% or more and less than 70%) | I: wild oat, herbicidal effect grade (wild oat [3]; [11]): 1 (Herbicidal rate of 5% or more and less than 20%) | K: Italian ryegrass, herbicidal effect grade (Italian ryegrass; [11]): 3 (Herbicidal rate of 40% or more and less than 70%) | L: windgrass, herbicidal effect grade (windgrass [4]; [11]): 3 (Herbicidal rate of 40% or more and less than 70%) | N: redroot pigweed, herbicidal effect grade (redroot pigweed [5]; [11]): 1 (Herbicidal rate of 5% or more and less than 20%) | P: chickweed, herbicidal effect grade (chickweed; [11]): 3 (Herbicidal rate of 40% or more and less than 70%) | F: southern crabgrass, herbicidal effect grade (southern crabgrass; 304 g/ha): 5 (Herbicidal rate of 90% or more (almost completely withered)) | I: wild oat, herbicidal effect grade (wild oat [6]; 304 g/ha): 5 (Herbicidal rate of 90% or more (almost completely withered)) | L: windgrass, herbicidal effect grade (windgrass [7]; 304 g/ha): 4 (Herbicidal rate of 70% or more and less than 90%) | N: redroot pigweed, herbicidal effect grade (redroot pigweed [8]; 304 g/ha): 5 (Herbicidal rate of 90% or more (almost completely withered)) | O: lambsquarters, herbicidal effect grade (lambsquarters; 304 g/ha): 4 (Herbicidal rate of 70% or more and less than 90%) | R: persian speedwell, herbicidal effect grade (persian speedwell; 304 g/ha): 5 (Herbicidal rate of 90% or more (almost completely withered))
